# Laboratory results reported in patent US11066650B2, “Methods for the in vitro manufacture of gastric fundus tissue and compositions related to same” (Children's Hospital Medical Center, priority 2016, dated 2021).
# Assays:
# [1] = test system: posterior foregut spheroids; assay: Gastric specification of posterior foregut spheroids into fundic hGOs (qPCR/staining); format: cell-based, human
# Procedure: Posterior foregut spheroids were collected and transferred to a three-dimensional culture system as previously described^36. Briefly, spheroids were suspended in 50 μl Matrigel (BD Biosciences) and plated as a droplet into 24-well plates. The matrigel was allowed to solidify for 10 minutes in the tissue culture incubator, then overlayed with basic gut media (BGM) containing growth factors and/or small molecule agonsists. BGM consisted of Advanced DMEM/F12 media (Gibco) supplemented with N2 (1×; Invitrogen), B27 (1×; Invitrogen), HEPES ([…]; Gibco), L-glutamine, penicillin/streptomycin, and EGF (100 ng/ml; R&D Systems). During days 6-9, spheroids were cultured with RA and noggin to specify the antral lineage. For fundic specification, CHIR was added during this stage. Antral hGOs were subsequently cultured in BGM with only EGF. Fundic hGOs were continuously exposed to CHIR from day 6-30. […] On day 20, organoids were collected and re-plated at a dilution of 1:10-1:20.
# (§1) Total RNA was isolated using Nucleospin RNA II kit (Machery Nagel) and converted to cDNA as previously described7. qPCR was performed on Quantstudio 6 (Applied Biosystems) using Quantitect SYBR-Green master mix (Qiagen), and primer sequences are listed below.
# [2] = test system: hFGOs; assay: Acid secretion assay, luminal pH by SNARF-5F in fundic hGOs; format: cell-based, human
# Procedure: Acid secretion assays were performed as previously described (Schumacher et al., 2015). hGOs were grown in the chambered coverglass (Thermo Scientific) and the chamber was placed on an inverted confocal microscope (Zeiss LSM 710), and experiments were performed under 5% CO2 and 37° C. conditions (incubation chamber, PeCon, Erbach, Germany).
# (§2) Freshly isolated mouse gastric fundic glands or cultured hGO were incubated with acridine orange (10 μM), then acridine orange fluorescence was excited at 458 nm or 488 nm and images were collected at 600-650 nm (Red) or 500-550 nm (Green), respectively. On the other hand, to monitor hGOs luminal pH, the ratiometric pH sensitive dye, 5-(and-6)-carboxy SNARF-5F (5 mM stock: EX 560 nm, EM 565-605 (Green) and 620-680 (Red) nm: Invitrogen) was microinjected (46-92 nl) into the lumen and monitored. Fluorescent dye also added into medium. Histamine (100 μM; Sigma) was added to media, while famotidine (100 μM; Sigma) or omeprazole (100 μM; Sigma) were pre-incubated at least 30 min before histamine. Images were analyzed using MetaMorph software (Molecular Devices, Downingtown, Pa.). Background corrected 620-680/565-605 nm ratio values were converted to pH using a standard curve.
# [3] = test system: hAGOs; settings: histamine 100 μM
# Procedure: as §2, with “Acid secretion assays were performed as previously described (Schumacher et al., 2015). hGOs were grown in the chambered coverglass (Thermo Scientific) and the chamber was placed on an inverted confocal microscope (Zeiss LSM 710), and experiments were performed under 5% CO2 and 37° C. conditions (incubation chamber, PeCon, Erbach, Germany). Freshly” for “Freshly”, “Histamine (100 μM;” left out
# [4] = test system: hFGOs; settings: histamine, hFGO glands
# Procedure: as §2, with “Acid secretion assays were performed as previously described (Schumacher et al., 2015). hGOs were grown in the chambered coverglass (Thermo Scientific) and the chamber was placed on an inverted confocal microscope (Zeiss LSM 710), and experiments were performed under 5% CO2 and 37° C. conditions (incubation chamber, PeCon, Erbach, Germany). Freshly” for “Freshly”, “Histamine (100 μM;” left out
# [5] = test system: isolated mouse gastric glands; settings: histamine, after 60 minutes
# Procedure: as §2, with “Acid secretion assays were performed as previously described (Schumacher et al., 2015). hGOs were grown in the chambered coverglass (Thermo Scientific) and the chamber was placed on an inverted confocal microscope (Zeiss LSM 710), and experiments were performed under 5% CO2 and 37° C. conditions (incubation chamber, PeCon, Erbach, Germany). Freshly” for “Freshly”, “Histamine (100 μM;” left out
# [6] = test system: hFGOs; assay: Screen for factors that increase parietal cell differentiation in hFGOs (qPCR at day 34); format: cell-based, human; settings: for parietal cell gene expression (ATP4A and ATP4B): day 30 hFGOs exposed two days, analysed at day 34
# Procedure: For screening experiments to identify factors that increase parietal cell differentiation, hFGOs were grown to day 30, then exposed for two days to individual signaling pathway agonists and antagonists: DAPT (1 μM; Stemgent), SB431542 (10 μM; Stemgent), BMP4 (50 ng/ml; R&D Systems), PD0325901 (2 μM; Stemgent), Gastrin (10 nM; Sigma Aldrich), Dexamethasone (50 nM; Sigma Aldrich), and Wnt5a (50 ng/ml; R&D Systems). Following treatment, hFGOs were grown for two more days to day 34, then analyzed by qPCR.
# as §1
# [7] = CHIR for three days (days 6-9), analysed at day 9
molecule,measurement,setting,value
Cc1c[nH]c(-c2cnc(NCCNc3ccc(C#N)cn3)nc2-c2ccc(Cl)cc2Cl)n1 [CHIR99021],PDX1 expression,[1]; [7],nearly complete repression
same,SOX2 and GATA4 levels,[1]; [7],unaffected
same,"expression of IRX2, IRX3, and IRX5",[1]; [7],significantly increased expression
same,"intestinal markers CDX2, MUC2, CCK, or SCT",[1]; CHIR-treated hGOs,did not exhibit a significant increase
same,fundic gene expression,[1]; continued CHIR treatment through at least day 29,stable induction of fundic gene expression
same,specification of fundic identity,"[1]; three-day pulse of CHIR from days 6-9, later stages",not sufficient to irreversibly specify a fundic identity
NC(N)=Nc1nc(CSCCC(N)=NS(N)(=O)=O)cs1 [famotidine],histamine-induced decrease in luminal pH (acidification),"[2]; 100 μM, pre-incubated at least 30 min before histamine 100 μM",blocked
NCCc1c[nH]cn1 [histamine],luminal pH response,[2]; histamine 100 μM,swift and marked decrease in luminal pH
same,luminal pH response,[3],no response
same,acridine orange (AO) accumulation,[4],AO accumulated in acidified cellular vesicles
same,acridine orange (AO) accumulation,[5],induced acridine orange (AO) dye accumulation in a canalicular-type pattern
O=C(NOC[C@H](O)CO)c1ccc(F)c(F)c1Nc1ccc(I)cc1F [PD0325901],parietal cell gene expression (ATP4A and ATP4B),[6],substantial up-regulation
"FGF10: growth factor (R&D Systems) added to fundic hGOs day 20-30 (protein, UniProt O15520 38-208, looked up) Fibroblast growth factor 10: QALGQDMVSPEATNSSSSSFSSPSSAGRHVRSYNHLQGDVRWRKLFSFTKYFLKIEKNGKVSGTKKENCPYSILEITSVEIGVVAVKAINSNYYLAMNKKGKLYGSKEFNNDCKLKERIEENGYNTYASFNWQHNGRQMYVALNGKGAPRRGQKTRRKNTSAHFLPMVVHS",glandular morphogenesis driven by CHIR,"[1]; FGF10 50 ng/ml, day 20-30, data not shown",enhance the glandular morphogenesis
"BMP4: growth factor, BMP signalling activator (R&D Systems) (protein, UniProt P12644 293-408, looked up) Bone morphogenetic protein 4: SPKHHSQRARKKNKNCRRHSLYVDFSDVGWNDWIVAPPGYQAFYCHGDCPFPLADHLNSTNHAIVQTLVNSVNSSIPKACCVPTELSAISMLYLDEYDKVVLKNYQEMVVEGCGCR",CDX2 expression,"[1]; Noggin replaced with BMP4, with Wnt/β-catenin activation (CHIR)",robust expression of the intestinal transcription factor
same,effect of PD03 on parietal cell gene expression,"[6]; BMP4 added to PD03, data not shown",could enhance the effect of PD03
same,parietal cell gene expression (ATP4A and ATP4B),[6],did not affect PC gene expression
